Test results published in US9879014B2, “Method for screening substance capable of inhibiting abnormal splicing causative of onset or progress of disease” (KYOTO UNIVERSITY, priority 2013, dated 2018).
Entries after “also recorded” stand apart in the source; their conditions may differ.

Legend:
[1] = tested on: IKBKAP gene with the IVS20+6T→C mutation; conditions: disclosed in U.S. Pat. No. 7,737,110; cited from earlier work
[2] = tested on: pre-mRNA of the mutant human IKBKAP gene having the IVS20+6T→C mutation; assay: two-color fluorescent FD-type splicing reporter construct in HeLa cells (GFP/RFP); format: cell-based; conditions: HeLa cells transfected with FD-type reporter construct
Excerpt: A reporter construct (FD type) as illustrated in FIG. 1B was produced by utilizing exons 19 to 21 of a mutant human IKBKAP gene having the IVS20^+6T→C mutation as illustrated in FIG. 1A. In the reporter construct, a gene for a GST protein, exons 19 to 21 of a mutant human IKBKAP gene, a red fluorescent protein (RFP), and a green fluorescent protein (GFP) were connected in this order downstream of a CAG promoter. When this reporter construct underwent wild-type splicing, the gene for a GST protein and exons 19 to 21 of the mutant human IKBKAP gene were joined to form an mRNA of 3n+1 bases in length, and a stop codon (UAA) of the RFP gene was out-of-frame, so that the GFP gene was translated in the frame to express a green fluorescent protein. On the other hand, when this reporter construct underwent abnormal splicing, the gene for a GST protein and exons 19 to 21 of the mutant human IKBKAP gene were joined to form an mRNA of 3n bases in length, so that the RFP gene and the stop codon (UAA) of the RFP gene were translated in the frame to express a red fluorescent protein. The FD-type reporter construct was used to screen a compound capable of inhibiting abnormal splicing of a pre-mRNA that was transcribed from the construct. Specifically, the FD-type reporter construct was transfected into HeLa cells, and then a test compound was brought into contact with the HeLa cells and cultured. Next, fluorescence observation was performed after a predetermined time, and the fluorescence intensity ratio (GFP/RFP) of GFP (normal splicing products) to RFP (abnormal splicing products) was compared to the control (e.g., a solvent alone or kinetin (reference compound 1)), so that the compound with higher fluorescence intensity was determined. […] The FD-type reporter construct was transfected into HeLa cells, and then the compound 1 was brought into contact with the HeLa cells and cultured (compound concentration: […], and 50.0 μM). Next, fluorescence observation was performed each after 24 hours and 48 hours, and the fluorescence intensity ratio (GFP/RFP) was determined. […]

[3] = tested on: endogenous IKBKAP gene with the IVS20+6T→C mutation in cells of FD patients; assay: RT-PCR of spliced products of the endogenous IKBKAP gene in cells of FD patients; format: cell-based, human; conditions: cultured 60 hours
Method: The cells of FD patients were obtained from Coriell Institute. The endogenous IKBKAP gene in the cells of FD patients had the IVS20^+6T→C mutation. Compound 1 and the kinetin were added at a concentration of 2 μM or 50 μM to a culture medium of the cells of FD patients. The cells were cultured for 60 hours, collected, and then subjected to RT-PCR. As the control, untreated cells and DMSO (solvent) treated cells were used. FIG. 4 illustrates the results.

Structure (SMILES) | inhibition of abnormal splicing of the IKBKAP gene with the IVS20+6T→C mutation [1] | fluorescence intensity ratio (GFP/RFP) of GFP (normal splicing) to RFP (abnormal splicing) ([2]; 0.4, 2.0, 0.10, and 50.0 μM, after 24 hours and 48 hours) | degree of increase of GFP/RFP ratio compared with kinetin ([2]; after 24 hours and 48 hours) | screening outcome: GFP/RFP fluorescence intensity ratio compared to the control (solvent alone or kinetin) ([2]; after a predetermined time) | spliced products (mRNAs) of the endogenous IKBKAP gene by RT-PCR ([3]; 2 μM or 50 μM) | abnormal splicing inhibition activity compared with kinetin ([3]; RT-PCR) | concentration capable of inhibiting abnormal splicing ([3]; RT-PCR)
c1coc(CNc2ncnc3nc[nH]c23)c1 [kinetin] | can inhibit abnormal splicing |  |  |  |  |  | 
Clc1nc(NCc2ccco2)c2nc[nH]c2n1 [compound 1, 2-chloro-N-(2-furanylmethyl)-7H-purin-6-amine] |  | increased in a concentration-dependent manner; also recorded: increases the GFP/RFP ratio in a concentration-dependent manner | significantly higher than that of the kinetin; also recorded: superior to that of kinetin | selected as a candidate compound for inhibiting abnormal splicing | reduces the abnormal splicing products and increases the normal splicing products | about the same as that of the kinetin at a concentration of 50 μM; also recorded: superior to that of kinetin | ≤ 2 µM
